Drawing on patent US10344025B2, “GLS1 inhibitors for treating disease” (Board of Regents, The University of Texas System, priority 2014, dated 2019), this text covers EC50 and IC50 for 25 molecules.

Molecules are shown by their SMILES.

Test [1] deals with A549 cells. Briefly: Proliferation Assay (A549 viability, Cell Titer Fluor, 72 hours). Type of test: cell-based. Particulars: Homo sapiens. Put shortly:
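Cell Titer Fluor fluorescence after 72 h compound treatment (0.5% DMSO, 37 °C, 5% CO2) of A549 cells plated 24 h earlier at 1000/well. Four-parameter logistic fitting gave IC50.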

Test [2] concerns the target purified recombinant human GAC (GLS1) (Homo sapiens (Human), UniProt O94925). The test can be described thus: GLS1 Enzymatic Activity Assay (dual-coupled enzymatic assay, resorufin/Amplex UltraRed readout).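 Further: glutamate from GAC coupled via glutamate oxidase and peroxidase to resorufin, read as fluorescence (ex 530, em 590 nm) kinetically or at 20 min, four-parameter logistic IC50 fit.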 Type of test: biochemical.

Chain of purified recombinant human GAC (GLS1) (O94925 other isoform, or with tags, fused parts or gaps): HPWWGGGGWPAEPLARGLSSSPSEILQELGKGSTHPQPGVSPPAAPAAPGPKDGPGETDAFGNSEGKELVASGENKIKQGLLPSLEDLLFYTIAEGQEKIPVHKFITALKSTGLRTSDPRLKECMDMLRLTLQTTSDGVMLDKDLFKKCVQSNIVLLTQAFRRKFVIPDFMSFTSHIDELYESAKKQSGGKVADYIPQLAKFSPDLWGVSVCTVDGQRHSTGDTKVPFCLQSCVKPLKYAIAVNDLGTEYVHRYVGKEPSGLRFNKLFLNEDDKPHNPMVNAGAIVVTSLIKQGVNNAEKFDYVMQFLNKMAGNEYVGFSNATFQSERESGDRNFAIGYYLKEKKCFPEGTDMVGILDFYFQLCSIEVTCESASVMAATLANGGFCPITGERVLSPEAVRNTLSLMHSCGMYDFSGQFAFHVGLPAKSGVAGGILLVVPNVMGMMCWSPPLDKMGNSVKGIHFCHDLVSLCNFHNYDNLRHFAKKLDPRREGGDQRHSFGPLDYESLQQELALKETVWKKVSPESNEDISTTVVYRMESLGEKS

In the case of `CNC(=O)c1cn(CC(F)CCc2ccc(NC(=O)Cc3cncc(OC4CC(F)(F)C4)c3)nn2)nn1` (centres unmarked) [Example 245, 1-(4-(6-(2-(5-(3,3-difluorocyclobutoxy)pyridin-3-yl)acetamido)pyridazin-3-yl)-2-fluorobutyl)-N-methyl-1H-1,2,3-triazole-4-carboxamide], the 50% effective concentration (EC50) (in general, the midpoint of the concentration-response curve) in test [1] (A549, 72 h) is less than 100 nM. Further, the IC50 (usually the concentration that gives 50% inhibition) in test [2] is less than 100 nM.
Consider `O=C(Cc1cc(-c2cccc(OC(F)(F)F)c2)ccn1)Nc1ccc(CCCCn2cc(C(=O)NCCO)nn2)nn1` [Example 246, N-(2-hydroxyethyl)-1-(4-(6-(2-(4-(3-(trifluoromethoxy)phenyl)pyridin-2-yl)acetamido)pyridazin-3-yl)butyl)-1H-1,2,3-triazole-4-carboxamide], for which, in test [1] (A549, 72 h), the 50% effective concentration (EC50) is less than 100 nM. Further, in test [2], the concentration for half-maximal inhibition (IC50) was less than 100 nM.
Take `CNC(=O)c1cn(CCCCc2ccc(NC(=O)CN3CCN(Cc4cccc(OC(F)(F)F)c4)CC3=O)nn2)nn1` [Example 247, N-methyl-1-(4-(6-(2-(2-oxo-4-(3-(trifluoromethoxy)benzyl)piperazin-1-yl)acetamido)pyridazin-3-yl)butyl)-1H-1,2,3-triazole-4-carboxamide]: in test [1] (A549, 72 h), the EC50 is less than 100 nM. Further, the concentration for half-maximal inhibition (IC50) in test [2] is less than 100 nM.
`CNC(=O)c1cn(CCCCc2ccc(NC(=O)CN3CCN(c4ccccc4OC(F)(F)F)CC3=O)nn2)nn1` [Example 249, N-methyl-1-(4-(6-(2-(2-oxo-4-(2-(trifluoromethoxy)phenyl)piperazin-1-yl)acetamido)pyridazin-3-yl)butyl)-1H-1,2,3-triazole-4-carboxamide] displayed a half-maximal effective concentration (EC50) in test [1] (A549, 72 h) of less than 100 nM. For the same molecule, the half-maximal inhibitory concentration (IC50) in test [2] was less than 100 nM.
As for `O=C(Cc1ccccn1)Nc1nnc(CC[C@@H](F)Cn2cc(C(=O)NCc3cc(C(F)(F)F)ccn3)nn2)s1` [Example 250, (R)-1-(2-fluoro-4-(5-(2-(pyridin-2-yl)acetamido)-1,3,4-thiadiazol-2-yl)butyl)-N-((4-(trifluoromethyl)pyridin-2-yl)methyl)-1H-1,2,3-triazole-4-carboxamide], the EC50 in test [1] is less than 100 nM. Moreover, the concentration for half-maximal inhibition (IC50) in test [2] is less than 100 nM.
In test [1] (A549, 72 h), `CNC(=O)c1cn(CC(F)CCc2ccc(NC(=O)Cc3cc(OC4CCC4)ccn3)nn2)nn1` (centres unmarked) [Example 251, 1-(4-(6-(2-(4-cyclobutoxypyridin-2-yl)acetamido)pyridazin-3-yl)-2-fluorobutyl)-N-methyl-1H-1,2,3-triazole-4-carboxamide 2,2,2-trifluoroacetate] showed an EC50 of less than 100 nM. Besides, in test [2], the half-inhibitory concentration (IC50) was less than 100 nM.
For the molecule `CNC(=O)c1cn(CC(F)CCc2ccc(NC(=O)Cc3cc(C4CCOCC4)ccn3)nn2)nn1` (centres unmarked) [Example 253, 1-(2-fluoro-4-(6-(2-(4-(tetrahydro-2H-pyran-4-yl)pyridin-2-yl)acetamido)pyridazin-3-yl)butyl)-N-methyl-1H-1,2,3-triazole-4-carboxamide], the concentration giving a half-maximal response (EC50) in test [1] (A549, 72 h) is less than 100 nM. Also, the IC50 in test [2] is less than 100 nM.
In the case of `CNC(=O)c1cn(CCCCc2ccc(NC(=O)Cc3cc(C(C)C(F)(F)F)ccn3)nn2)nn1` (centres unmarked) [Example 258, N-methyl-1-(4-(6-(2-(4-(1,1,1-trifluoropropan-2-yl)pyridin-2-yl)acetamido)pyridazin-3-yl)butyl)-1H-1,2,3-triazole-4-carboxamide], the concentration giving a half-maximal response (EC50) in test [1] (A549, 72 h) is less than 100 nM. Besides, the IC50 in test [2] was less than 100 nM.
In test [1], `CNC(=O)c1cn(CC(F)CCc2ccc(NC(=O)Cc3cc(OCC(F)(F)F)ccn3)nn2)nn1` (centres unmarked) [Example 262, 1-(2-Fluoro-4-(6-(2-(4-(2,2,2-trifluoroethoxy)pyridin-2-yl)acetamido)pyridazin-3-yl)butyl)-N-methyl-1H-1,2,3-triazole-4-carboxamide] yielded an EC50 of less than 100 nM. The IC50 in test [2] is less than 100 nM.
As to `CNC(=O)c1cn(CC(F)CCc2ccc(NC(=O)Cc3cc(C(F)(F)F)cc(C4CC4)n3)nn2)nn1` (centres unmarked) [Example 263, 1-(4-(6-(2-(6-cyclopropyl-4-(trifluoromethyl)pyridin-2-yl)acetamido)pyridazin-3-yl)-2-fluorobutyl)-N-methyl-1H-1,2,3-triazole-4-carboxamide], the EC50 in test [1] (A549, 72 h) was less than 100 nM. In test [2], the IC50 was less than 100 nM.
Take `CNC(=O)c1cn(CC(F)CCc2nnc(NC(=O)Cc3cc(C4CCOCC4)ccn3)s2)nn1` (centres unmarked) [Example 265, 1-(2-fluoro-4-(5-(2-(4-(tetrahydro-2H-pyran-4-yl)pyridin-2-yl)acetamido)-1,3,4-thiadiazol-2-yl)butyl)-N-methyl-1H-1,2,3-triazole-4-carboxamide]: the concentration for a half-maximal effect (EC50) in test [1] (A549, 72 h) is less than 100 nM. Besides, in test [2], the concentration for half-maximal inhibition (IC50) is less than 100 nM.
For `CNC(=O)c1cn(C[C@H](F)CCc2ccc(NC(=O)Cc3cc(C(F)(F)C4CC4)ccn3)nn2)nn1` [Example 267, (R)-1-(4-(6-(2-(4-(cyclopropyldifluoromethyl)pyridin-2-yl)acetamido)pyridazin-3-yl)-2-fluorobutyl)-N-methyl-1H-1,2,3-triazole-4-carboxamide], the EC50 in test [1] (A549, 72 h) was less than 100 nM. In test [2], the IC50 was less than 100 nM.
As to `CNC(=O)c1cn(C[C@H](F)CCc2ccc(NC(=O)Cc3cc(OC4CC(OCC(F)(F)F)C4)ccn3)nn2)nn1` (stereo partly drawn) [Example 269, (R)-1-(2-fluoro-4-(6-(2-(4-(3-(2,2,2-trifluoroethoxy)cyclobutoxy)pyridin-2-yl)acetamido)pyridazin-3-yl)butyl)-N-methyl-1H-1,2,3-triazole-4-carboxamide], in test [1] (A549, 72 h), the EC50 was less than 100 nM. The IC50 in test [2] is less than 100 nM.
`CNC(=O)c1cn(C[C@H](F)CCc2ccc(NC(=O)Cc3cn(-c4cccc(OC(F)(F)F)c4)cn3)nn2)nn1` [Example 270, (R)-1-(2-fluoro-4-(6-(2-(1-(3-(trifluoromethoxy)phenyl)-1H-imidazol-4-yl)acetamido)pyridazin-3-yl)butyl)-N-methyl-1H-1,2,3-triazole-4-carboxamide] had a half-maximal effective concentration (EC50) in test [1] (A549, 72 h) of less than 100 nM. Also, the IC50 in test [2] was less than 100 nM.
For the molecule `CNC(=O)c1cn(C[C@H](F)CCc2ccc(NC(=O)Cc3cc(OC4CCOCC4)ccn3)nn2)nn1` [Example 271, (R)-1-(2-fluoro-4-(6-(2-(4-((tetrahydro-2H-pyran-4-yl)oxy)pyridin-2-yl)acetamido)pyridazin-3-yl)butyl)-N-methyl-1H-1,2,3-triazole-4-carboxamide], the EC50 in test [1] (A549, 72 h) was less than 100 nM. Further, the IC50 in test [2] is less than 100 nM.
As to `CNC(=O)c1cn(C[C@H](F)CCc2ccc(NC(=O)Cc3ccccc3)nn2)nn1` [Example 273, (R)-1-(2-fluoro-4-(6-(2-phenylacetamido)pyridazin-3-yl)butyl)-N-methyl-1H-1,2,3-triazole-4-carboxamide], in test [1] (A549, 72 h), the concentration for a half-maximal effect (EC50) was less than 100 nM. In addition, the IC50 in test [2] is less than 100 nM.
For the molecule `CNC(=O)c1cn(CC(F)CCc2ccc(NC(=O)Cc3cc(OC(F)F)ccn3)nn2)nn1` (centres unmarked) [Example 274, 1-(4-(6-(2-(4-(difluoromethoxy)pyridin-2-yl)acetamido)pyridazin-3-yl)-2-fluorobutyl)-N-methyl-1H-1,2,3-triazole-4-carboxamide], the concentration giving a half-maximal response (EC50) in test [1] (A549, 72 h) was less than 100 nM. The concentration for half-maximal inhibition (IC50) in test [2] was less than 100 nM.
The molecule `CNC(=O)c1cn(C[C@H](F)CCc2ccc(NC(=O)Cc3cc(C4CC4)ccn3)nn2)nn1` [Example 275, (R)-1-(4-(6-(2-(4-cyclopropylpyridin-2-yl)acetamido)pyridazin-3-yl)-2-fluorobutyl)-N-methyl-1H-1,2,3-triazole-4-carboxamide] gave an EC50 in test [1] (A549, 72 h) of less than 100 nM. The IC50 in test [2] was less than 100 nM.
As for `O=C(CC1CC1)Nc1cn(CCCCn2cc(C(=O)NCc3cccc(OC(F)(F)F)c3)nn2)nn1` [Example 276, 1-{4-[4-(2-cyclopropylacetamido)-1H-1,2,3-triazol-1-yl]butyl}-N-{[3-(trifluoromethoxy)phenyl]methyl}-1H-1,2,3-triazole-4-carboxamide], the EC50 in test [1] (A549, 72 h) was 100 to 500 nM. In addition, in test [2], the IC50 lay in the range of 100 to 500 nM.
Turning to `O=C(CC1CCCC1)Nc1cn(CCCCn2cc(C(=O)NCc3ccccn3)nn2)nn1` [Example 277, 1-{4-[4-(2-cyclopentylacetamido)-1H-1,2,3-triazol-1-yl]butyl}-N-(pyridin-2-ylmethyl)-1H-1,2,3-triazole-4-carboxamide], the concentration giving a half-maximal response (EC50) in test [1] (A549, 72 h) lay in the range of 500 to 5000 nM. The IC50 in test [2] was 100 to 500 nM.
Take `O=C(Cc1cccc(OC(F)(F)F)c1)Nc1cn(CCCCn2cc(C(=O)NCc3ccccn3)nn2)nn1` [Example 279, N-(pyridin-2-ylmethyl)-1-[4-(4-{2-[3-(trifluoromethoxy)phenyl]acetamido}-1H-1,2,3-triazol-1-yl)butyl]-1H-1,2,3-triazole-4-carboxamide]: the 50% effective concentration (EC50) in test [1] (A549, 72 h) fell in the range of 100 to 500 nM. Moreover, the IC50 in test [2] was less than 100 nM.
Molecule `O=C(CC1CCCCC1)Nc1cn(CCCCn2cc(C(=O)NCc3ccccn3)nn2)nn1` [Example 280, 1-{4-[4-(2-cyclohexylacetamido)-1H-1,2,3-triazol-1-yl]butyl}-N-(pyridin-2-ylmethyl)-1H-1,2,3-triazole-4-carboxamide] displayed an EC50 in test [1] (A549, 72 h) of 500 to 5000 nM. In addition, the concentration for half-maximal inhibition (IC50) in test [2] lay in the range of 100 to 500 nM.
`O=C(Cc1cccnc1)Nc1cn(CCCCn2cc(C(=O)NCC3CCCCC3)nn2)nn1` [Example 284, N-(cyclohexylmethyl)-1-(4-{4-[2-(pyridin-3-yl)acetamido]-1H-1,2,3-triazol-1-yl}butyl)-1H-1,2,3-triazole-4-carboxamide]: in test [1] (A549, 72 h), the EC50 lay in the range of 500 to 5000 nM. Moreover, the half-maximal inhibitory concentration (IC50) in test [2] lay in the range of 100 to 500 nM.
`O=C(Cc1ccccn1)Nc1cn(CCCCn2cc(C(=O)NCC3CCCCC3)nn2)nn1` [Example 285, N-(cyclohexylmethyl)-1-(4-{4-[2-(pyridin-2-yl)acetamido]-1H-1,2,3-triazol-1-yl}butyl)-1H-1,2,3-triazole-4-carboxamide] registered an EC50 in test [1] (A549, 72 h) of 500 to 5000 nM. Moreover, the IC50 in test [2] was 500 to 5000 nM.
Turning to `O=C(Cc1cccc(OC(F)(F)F)c1)Nc1cn(CCCCn2cc(C(=O)NCC3CCCCC3)nn2)nn1` [Example 286, N-(cyclohexylmethyl)-1-[4-(4-{2-[3-(trifluoromethoxy)phenyl]acetamido}-1H-1,2,3-triazol-1-yl)butyl]-1H-1,2,3-triazole-4-carboxamide], in test [1] (A549, 72 h), the EC50 was 100 to 500 nM. The IC50 in test [2] is less than 100 nM.
